Experimental data taken from patent US20220175768A1, “FGFR TYROSINE KINASE INHIBITORS FOR THE TREATMENT OF UROTHELIAL CARCINOMA” (Janssen Pharmaceutica NV, priority 2019, published 2022).

Columns and labels:
urothelial cancer = assay: Best response to prior therapy before study enrolment per investigator assessment; type: in vivo, human; conditions: first-line, across all regimens
Excerpt: Across all regimens, 184 patients had received first-line platinum-based chemotherapy, 83 had received second-line chemotherapy, and 24 had received third-line chemotherapy before study enrolment.

[1] = study in which nine of 10 patients had disease progression with prior immunotherapy; cited from earlier work

| Compound | Best ORR per investigator assessment to prior chemotherapy (urothelial cancer) [%] | Patients who responded to rogaratinib [1] [%] |
| --- | --- | --- |
| gemcitabine plus cisplatin | 35 | – |
| COCc1c(-c2cc3cc(C)cc(OC)c3s2)c2c(N)ncnn2c1CN1CCNC(=O)C1 [rogaratinib] | – | 30 |
